The IC50 is the point on the concentration scale where inhibition reaches its midpoint.

The results in this text go back to patent US9687479B2, “Multisubstituted aromatic compounds as serine protease inhibitors” (VERSEON CORPORATION, priority 2013, dated 2017).

Some results are limits rather than exact numbers.

Holding throughout (type): biochemical
The target in experiment [1] is Human thrombin (Homo sapiens (Human), UniProt P00734). The experiment can be described thus: Thrombin protease activity inhibition assay (chromogenic substrate S-2238). The conditions noted are these: 3 nM thrombin, 125 μM S-2238, 10 min pre-incubation, RT. In a few lines:
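Ten-point, three-fold serial dilutions of compound tested against 3 nM enzyme at RT in Tris buffer (0.05 M, pH 7.4) with 0.015 M NaCl and 0.01% PEG-8000.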

The target of experiment [2] is Human KLKB1 (Homo sapiens (Human), UniProt P03952). The experiment can be described thus: KLKB1 kallikrein activity inhibition assay (chromogenic substrate S-2302). The settings on record: Table B. Summed up: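 Enzyme at a final 3 nM was assayed in 0.05 M Tris pH 7.4, 0.01 M NaCl and 0.2% PEG-8000 at room temperature, with compounds as ten-point threefold dilutions.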

The target of experiment [3] is Recombinant human tissue kallikrein (KLK1) (Homo sapiens (Human), UniProt P06870). As to the kind of experiment: KLK1 kallikrein activity inhibition assay (Pro-Phe-Arg-AMC substrate). The settings on record: Table B. The procedure:
The KLK1 kallikrein activity reported herein (e.g., Tables B and C) was obtained as follows. Recombinant human tissue kallikrein (KLK1) was obtained from R&D Systems. […] KLK1 enzyme is activated by incubating 0.5 mg/ml KLK1 combined with 0.1 μg/ml thermolysin in a buffer of 0.05 M Tres (pH 7.5), 0.15 M NaCl, and 0.01 M CaCl2 for one hour at 37° C. The thermolysin is then deactivated by the addition of equal parts 20 mM 1, 10 phenanthroline solution in water. The activated KLK1 solution is then added to CHES buffer (0.05 M CHES, 0.15 M NaCl, 0.01 M CaCl2, pH 10) for a final concentration of 5 nM along with the test article and incubated for 10 minutes. […] Substrate activation is read 10 minutes after substrate addition using a Synergy H1 multifunction plate reader (Biotek) programmed with a 360 nm excitation wavelength and a 480 nm emission wavelength. Inhibitor response was established by adding test compound as ten point, three-fold serial dilutions, as known in the art. The IC50 was calculated by plotting the percent (%) inhibition against compound concentration and fitting the data to a constrained four parameter sigmoidal curve, as known in the art.

Recombinant human tissue kallikrein (KLK1), sequence (P06870 25-262): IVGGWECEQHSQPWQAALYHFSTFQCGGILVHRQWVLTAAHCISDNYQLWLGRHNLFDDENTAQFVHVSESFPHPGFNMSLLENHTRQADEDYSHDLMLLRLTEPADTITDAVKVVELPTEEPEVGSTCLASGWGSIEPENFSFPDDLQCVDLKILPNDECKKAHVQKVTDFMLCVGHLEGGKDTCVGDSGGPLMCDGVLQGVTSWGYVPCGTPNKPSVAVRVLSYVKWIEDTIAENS
Human KLKB1, sequence (P03952 391-638 limits assumed): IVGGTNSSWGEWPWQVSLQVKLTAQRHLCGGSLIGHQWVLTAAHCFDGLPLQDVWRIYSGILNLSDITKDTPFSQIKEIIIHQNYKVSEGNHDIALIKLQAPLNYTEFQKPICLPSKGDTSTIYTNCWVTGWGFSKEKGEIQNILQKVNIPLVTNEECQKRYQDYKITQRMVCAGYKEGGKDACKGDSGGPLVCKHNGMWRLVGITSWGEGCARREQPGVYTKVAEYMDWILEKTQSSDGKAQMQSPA
Human KLKB1, sequence (P03952 20-390 partner limits assumed): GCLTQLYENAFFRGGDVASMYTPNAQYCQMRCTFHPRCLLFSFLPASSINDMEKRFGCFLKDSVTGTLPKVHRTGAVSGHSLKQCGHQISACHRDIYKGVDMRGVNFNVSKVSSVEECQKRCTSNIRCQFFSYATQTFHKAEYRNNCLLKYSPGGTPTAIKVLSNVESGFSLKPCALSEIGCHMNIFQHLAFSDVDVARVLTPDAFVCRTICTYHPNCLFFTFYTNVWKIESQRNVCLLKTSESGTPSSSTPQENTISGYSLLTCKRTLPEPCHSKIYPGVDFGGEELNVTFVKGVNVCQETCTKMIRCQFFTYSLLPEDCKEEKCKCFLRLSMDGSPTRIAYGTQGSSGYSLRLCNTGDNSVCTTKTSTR

On to `COc1ccccc1C(=O)n1nc(-c2cccn(CC(=O)N3CCOCC3)c2=O)cc1NCc1ccc(Cl)s1` [Cmpd 145, 3-(5-[(5-chlorothiophen-2-yl)methyl]amino-1-[(2-methoxyphenyl)carbonyl]-1H-pyrazol-3-yl)-1-[2-(morpholin-4-yl)-2-oxoethyl]-1,2-dihydropyridin-2-one], for which the figures for the IC50 in experiment [1], in experiment [2] and in experiment [3] were less than 0.1 µM, 1 to 10 µM and more than 100 µM, respectively.
The corresponding values for `COCCn1cccc(-c2cc(NCc3ccc(Cl)s3)n(C(=O)C3(C)CCOCC3)n2)c1=O` [Cmpd 149, 3-(5-[(5-chlorothiophen-2-yl)methyl]amino-1-[(4-methyloxan-4-yl)carbonyl]-1H-pyrazol-3-yl)-1-(2-methoxyethyl)-1,2-dihydropyridin-2-one] are more than 100 µM, 1 to 10 µM and more than 100 µM.
For `O=C(c1ccc(N2CCOCC2)cc1)n1nc(-c2cccn(Cc3cccnc3)c2=O)cc1NCc1ccc(Cl)s1` [Cmpd 213, 3-(5-[(5-chlorothiophen-2-yl)methyl]amino-1-[4-(morpholin-4-yl)phenyl]carbonyl-1H-pyrazol-3-yl)-1-(pyridin-3-ylmethyl)-1,2-dihydropyridin-2-one], in that order: less than 0.1 µM, 0.1 to 1 µM and more than 100 µM.
For `COCCn1cccc(-c2cc(NCc3ccc(Cl)s3)n(C(=O)c3ccccc3Cl)n2)c1=O` [Cmpd 242, 3-1-[(2-chlorophenyl)carbonyl]-5-[(5-chlorothiophen-2-yl)methyl]amino-1H-pyrazol-3-yl-1-(2-methoxyethyl)-1,2-dihydropyridin-2-one], in that order: less than 0.1 µM, 0.1 to 1 µM and more than 100 µM.
For the compound `O=C(c1ccccc1Cl)n1nc(-c2cccn(Cc3cccnc3)c2=O)cc1NCc1ccc(Cl)s1` [Cmpd 247, 3-1-[(2-chlorophenyl)carbonyl]-5-[(5-chlorothiophen-2-yl)methyl]amino-1H-pyrazol-3-yl-1-(pyridin-3-ylmethyl)-1,2-dihydropyridin-2-one], the IC50 in experiment [1] was less than 0.1 µM; in experiment [2], less than 0.1 µM; in experiment [3] it was more than 100 µM.
Take `O=C(c1ccccc1Cl)n1nc(-c2cccn(Cc3ccncc3)c2=O)cc1NCc1ccc(Cl)s1` [Cmpd 248, 3-1-[(2-chlorophenyl)carbonyl]-5-[(5-chlorothiophen-2-yl)methyl]amino-1H-pyrazol-3-yl-1-(pyridin-4-ylmethyl)-1,2-dihydropyridin-2-one]: the IC50 in experiment [1] was less than 0.1 µM; in experiment [2], 0.1 to 1 µM; in experiment [3] it was more than 100 µM.
